In US11247970B2, “Selective inhibition of gluconeogenic activity” (Dana-Farber Cancer Institute, Inc., priority 2017, dated 2022):

Columns and labels:
primary hepatocytes = experiment: Cytotoxicity determination in primary hepatocytes (Toxilight, MTT, total protein); format: cell-based, mouse
Description: For cell viability determination using MTT, primary hepatocytes were seeded on a 96-well plate at 20,000 cells/well. The following day cells were treated at different doses, as indicated, for 18 h following similar protocol described above for drug treatment of primary hepatocytes. […] of MTT reagent (5 mg/ml) was then added to each well (n=4/dose) and cells were incubated for 1 h at 37° C. Medium was discarded and dye was extracted by adding […] DMSO to each well. For cytotoxicity determination using ToxiLight Non-destructive Cytotoxicity Bioassay, hepatocytes were seeded on a 6-well plate and treated with either SR-18292 ([…]) or cisplatin ([…]) for 18 h. […] of medium was collected and used to measure cellular toxicity by adding 100 of adenylate kinase detection reagent (AKDR) and incubating 5 min at RT before measuring luminescence.

[1] = Serum biochemistry for liver toxicity; format: in vivo; details: HFD mice
Description: Serum samples were gathered from blood collected by cardiac puncture. Insulin was measured with Ultra Sensitive Mouse Insulin ELISA Kit (Crystal Chem, 90080). Kits used to measure alanine transaminase (EALT-100), aspartate transaminase (EASTR-100), lactate dehydrogenase (DLDH-100) were purchased from Bioassay Systems. Kits used to measure lactate (MAK 064), b-hydroxybutyrate (MAK 041), Triglycerides (TR0100) were purchased from Sigma. Kit used to measure cholesterol (C7510) was purchased from Pointe Scientific. Kit used to measure non-esterified fatty acids was purchased from Wako.
Serum enzymatic activities of alanine transaminase (ALT), aspartate aminotransferase (AST), lactate dehydrogenase (LDH) and bilirubin levels from mice fed high fat diet and treated with SR-18292. n=7.

[2] = Food intake and body weight of treated mice; format: in vivo
Description: (§1) All mice were purchased from Jackson laboratories and housed under a 12 h light/12 h dark cycle at 22° C. Before handling, mice were allowed to acclimate for at least 1 week in our animal facility. For in vivo studies with DIO mice, males 6-8 weeks old were fed HFD for the indicated time. For drug administration, SR-18292 was re-suspended in a 10% DMSO/10% Tween80/80% PBS solution at a final concentration of 6-12 mg/ml. Metformin was re-suspended in the same solution at a 20 mg/ml concentration. SR-18292 was injected via I.P. for 3 days between 4-5 pm and food was removed on day 3 at 5 pm. […] Metformin was administered via oral gavage. […] Insulin tolerance test was performed following the same dosing protocol, but mice were fasted for 4 hours after the forth injection before performing the test. Insulin was injected via I.P. (0.5 U/Kg) and blood glucose was measured every 20 minutes. Glycemia was measured by tail bleed using a glucometer (OneTouch). For all experiments, age- and body weight-matched animals were used. For protein, RNA extracts and biochemistry studies, livers were removed following each experiment and snap frozen in liquid nitrogen. For information on number of animals in each experiment please refer to FIGS. 4, 5 and S5 legends. All studies were performed according to protocols approved by Beth Israel Deaconess Medical Center's Animal Care and Use Committee.

HFD fed mice [3] = experiment: Pyruvate tolerance test (PTT); format: in vivo; details: HFD 17 weeks
Description: as §1

Pck1 and G6pc promoters = experiment: Chromatin immunoprecipitation on Pck1 and G6pc in primary hepatocytes; format: cell-based, mouse
Description: Primary hepatocytes were fixed in 1% formaldehyde for 10 minutes at room temperature. Crosslinking was quenched by adding glycine to a final concentration of 125 mM and rinsing twice with PBS. Cells were collected in PBS containing protease inhibitors followed by lysis in chromatin immunoprecipitation (ChIP) buffer (50 mM HEPES pH, 7.9; 140 mM NaCl; 1 mM EDTA; 1% Triton X-100; 0.1% NaDOC, 0.1% sodium dodecyl sulfate (SDS) and protease inhibitors). Chromatin was sheared by sonication with a Diagenode Biorupter for three cycles of 5 minutes (30 seconds on, 30 seconds off). Samples were clarified and chromatin immunoprecipitated overnight at 4° C. with the indicated antibody. Immune complexes were recovered with Protein A magnetic beads (Dynabeads; Novex, Life Technologies) preblocked with salmon sperm DNA (Invitrogen, Life Technologies). Following extensive washes, immunoprecipitated DNA was then isolated with a Chelex. Input DNA was prepared from 10% of respective chromatin prior to precipitation. Immunoprecipitated DNA and input DNA were analyzed by quantitative real-time PCR with primers specific for the indicated region. […] To further characterize the SR-18292-mediated inhibition of HNF4α transcriptional activity, chromatin immunoprecipitation (ChIP) assays were performed to examine the promoter occupancy of HNF4α on Pck1 and [MUT] promoters. Primary hepatocytes were treated with glucagon to induce gluconeogenic gene transcripts, and antibodies against HNF4α were used to IP chromatin fragments bound to this protein. […] Epigenetic changes accompany the response to glucagon in the fasted state, including an increase in activating H3K9 acetylation (H3K9Ac) and H3K4 trimethylation (H3K4Me3) of the Pck1 and [MUT] genes.

HFD fed mice [4] = experiment: Insulin tolerance test (ITT); format: in vivo; details: HFD 3 weeks
Description: as §1

HFD fed mice [5] = experiment: Fasting blood glucose in HFD fed mice; format: in vivo; details: 45 mg/kg I.P., 3 days and again day 4
Description: All mice were purchased from Jackson laboratories and housed under a 12 h light/12 h dark cycle at 22° C. Before handling, mice were allowed to acclimate for at least 1 week in our animal facility. For in vivo studies with DIO mice, males 6-8 weeks old were fed HFD for the indicated time. […] Metformin was re-suspended in the same solution at a 20 mg/ml concentration. […] Metformin was administered via oral gavage. […] Glycemia was measured by tail bleed using a glucometer (OneTouch). For all experiments, age- and body weight-matched animals were used.
Therefore, blood glucose was measured in the fasted state during which the liver plays a major role maintaining glycemia. […] A high fat diet (HFD) fed mice, a dietary model of obesity and T2D, were used.

HFD-fed mice = experiment: Hyperinsulinemic-euglycemic clamp; format: in vivo
Description: Hyperinsulinemic-euglycemic clamps were performed on mice fed HFD for 16 weeks as previously described with minor modifications (Jurczak et al., 2012). Briefly, an indwelling catheter was surgically implanted in the right jugular vein 7 days prior to study. Three days before study, mice were injected with SR-18292 and vehicle control following the same protocol described above. Mice were fasted overnight prior to clamps and then infused with a fixed amount of insulin [4 mU/(kg-min)] and a variable amount of 20% dextrose to maintain euglycemia. [3-H]glucose was included in the infusate to allow for the calculation of whole-body rates of glucose metabolism.

SMILES: Cc1ccc(CN(CC(O)COc2cccc3[nH]ccc23)C(C)(C)C)cc1 (stereo not shown) [SR-18292, 1-((1H-indol-4-yl)oxy)-3-(tert-butyl(4-methylbenzyl)amino)propan-2-ol]
- hepatocyte toxicity by cell viability or total protein levels (primary hepatocytes; 18 h treatment): did not cause hepatocyte toxicity
- total protein levels (primary hepatocytes; n=3): not affected
- liver toxicity by serum ALT, AST, LDH and bilirubin [1]: not observed
- ALT ([1]; serum, 45 mg/kg, n=7): 9.21 U/L
- AST ([1]; serum, 45 mg/kg, n=7): 29.94 U/L
- Bilirubin ([1]; serum, 45 mg/kg, n=7): 0.33 mg/dL
- LDH ([1]; serum, 45 mg/kg, n=7): 64.44 IU/L
- food intake ([2]; first 48 hours of treatment): neither food intake nor body weight were changed
- body weight ([2]; mouse, in vivo): neither food intake nor body weight were changed
- defects in glucose production relative to metformin (HFD fed mice [3]): comparable to that mediated by metformin treatment
- glucose levels after pyruvate injection (HFD fed mice [3]): significantly reduced
- FoxO1 promoter occupancy (Pck1 and G6pc promoters): not altered
- H3K9Ac and H3K4Me3 marks on the Pck1 gene (Pck1 and G6pc promoters): reduced H3K9Ac and H3K4Me3 marks
- glucagon-induced Pck1 and G6pc promoter occupancy by HNF4α (Pck1 and G6pc promoters; glucagon 200 nM): significantly reduced
- response to insulin (HFD fed mice [4]): enhanced
- fasting blood glucose vs vehicle (HFD fed mice [5]): significantly lower
- glucose infusion rate vs vehicle (HFD-fed mice; HFD 16 weeks): substantially higher
- peripheral glucose uptake (HFD-fed mice; HFD 16 weeks): not due to improved peripheral glucose uptake
- endogenous glucose production (HFD-fed mice; basal and clamp conditions): reduced endogenous glucose production
